PMC2941766 (Molecular pharmaceutics, 2010)
Read-outs that look alike come from different tables or passages of the source.

Columns and labels:
Format in all cases: in vitro ADME
[1] = target: T1, UGT2B7 (Homo sapiens, UniProt P16662); assay: Glucuronidation by expressed human UGT2B7; settings: for glucuronidation rate: human, pH 7.4
T1 sequence (P16662 24-529): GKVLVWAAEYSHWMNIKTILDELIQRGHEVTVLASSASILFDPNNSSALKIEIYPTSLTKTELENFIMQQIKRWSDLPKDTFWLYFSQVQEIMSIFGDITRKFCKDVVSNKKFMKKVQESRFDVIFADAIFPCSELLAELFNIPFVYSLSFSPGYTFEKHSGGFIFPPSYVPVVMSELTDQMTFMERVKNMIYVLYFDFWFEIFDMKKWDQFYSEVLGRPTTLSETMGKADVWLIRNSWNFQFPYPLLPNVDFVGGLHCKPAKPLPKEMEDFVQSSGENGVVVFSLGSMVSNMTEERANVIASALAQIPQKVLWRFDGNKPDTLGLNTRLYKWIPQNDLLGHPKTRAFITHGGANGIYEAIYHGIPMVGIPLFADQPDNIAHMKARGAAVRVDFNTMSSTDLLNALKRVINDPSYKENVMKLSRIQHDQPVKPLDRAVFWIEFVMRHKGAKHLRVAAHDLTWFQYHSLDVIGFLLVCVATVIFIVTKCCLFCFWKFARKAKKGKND

[2] = target: T2, UGT1A1 (Homo sapiens, UniProt P22309); assay: Glucuronidation by expressed human UGT1A1
T2 sequence (P22309 26-533): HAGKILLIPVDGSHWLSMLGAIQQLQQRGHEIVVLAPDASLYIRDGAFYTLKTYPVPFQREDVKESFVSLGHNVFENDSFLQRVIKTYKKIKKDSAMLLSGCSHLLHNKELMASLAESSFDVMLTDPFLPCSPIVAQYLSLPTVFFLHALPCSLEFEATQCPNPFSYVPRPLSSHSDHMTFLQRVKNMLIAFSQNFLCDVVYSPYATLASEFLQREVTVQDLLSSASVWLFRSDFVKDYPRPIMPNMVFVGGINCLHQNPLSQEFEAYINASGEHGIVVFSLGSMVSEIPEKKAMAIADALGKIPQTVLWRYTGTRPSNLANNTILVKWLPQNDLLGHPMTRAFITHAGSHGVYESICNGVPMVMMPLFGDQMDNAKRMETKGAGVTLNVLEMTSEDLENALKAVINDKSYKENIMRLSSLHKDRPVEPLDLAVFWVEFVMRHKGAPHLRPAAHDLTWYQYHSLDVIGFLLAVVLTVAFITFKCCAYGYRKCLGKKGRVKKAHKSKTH

[3] = target: T3, UGT1A7 (Homo sapiens, UniProt Q9HAW7); assay: Glucuronidation by expressed human UGT1A7
T3 sequence (Q9HAW7 26-530): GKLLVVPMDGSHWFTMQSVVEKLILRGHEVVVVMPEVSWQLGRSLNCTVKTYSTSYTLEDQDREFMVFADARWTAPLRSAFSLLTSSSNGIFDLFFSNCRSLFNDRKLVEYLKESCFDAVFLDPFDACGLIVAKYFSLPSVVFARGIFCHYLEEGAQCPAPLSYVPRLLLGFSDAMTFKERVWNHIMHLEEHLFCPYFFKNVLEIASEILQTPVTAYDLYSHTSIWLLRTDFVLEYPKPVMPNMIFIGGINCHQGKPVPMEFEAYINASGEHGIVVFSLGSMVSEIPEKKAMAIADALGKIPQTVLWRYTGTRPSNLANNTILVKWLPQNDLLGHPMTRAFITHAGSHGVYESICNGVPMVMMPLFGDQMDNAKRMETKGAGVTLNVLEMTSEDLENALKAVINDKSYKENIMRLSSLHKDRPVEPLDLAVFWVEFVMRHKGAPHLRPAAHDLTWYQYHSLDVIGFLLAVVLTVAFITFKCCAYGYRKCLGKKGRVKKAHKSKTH

[4] = target: T4, UGT1A8 (Homo sapiens, UniProt Q9HAW9); assay: Glucuronidation by expressed human UGT1A8
T4 sequence (Q9HAW9 26-530): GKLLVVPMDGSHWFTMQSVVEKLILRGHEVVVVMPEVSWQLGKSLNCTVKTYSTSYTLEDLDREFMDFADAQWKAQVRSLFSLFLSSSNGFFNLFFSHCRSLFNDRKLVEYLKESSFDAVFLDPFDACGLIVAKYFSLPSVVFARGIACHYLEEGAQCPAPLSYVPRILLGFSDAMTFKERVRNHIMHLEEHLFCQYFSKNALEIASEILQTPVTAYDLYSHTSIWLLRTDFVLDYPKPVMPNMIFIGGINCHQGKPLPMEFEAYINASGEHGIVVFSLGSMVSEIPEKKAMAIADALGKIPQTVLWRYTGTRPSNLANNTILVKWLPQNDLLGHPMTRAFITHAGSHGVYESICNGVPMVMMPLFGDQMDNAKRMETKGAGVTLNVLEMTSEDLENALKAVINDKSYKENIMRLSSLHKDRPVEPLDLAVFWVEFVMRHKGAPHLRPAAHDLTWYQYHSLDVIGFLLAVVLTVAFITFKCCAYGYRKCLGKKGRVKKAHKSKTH

[5] = target: T5, UGT1A9 (Homo sapiens, UniProt O60656); assay: Glucuronidation by expressed human UGT1A9
T5 sequence (O60656 26-530): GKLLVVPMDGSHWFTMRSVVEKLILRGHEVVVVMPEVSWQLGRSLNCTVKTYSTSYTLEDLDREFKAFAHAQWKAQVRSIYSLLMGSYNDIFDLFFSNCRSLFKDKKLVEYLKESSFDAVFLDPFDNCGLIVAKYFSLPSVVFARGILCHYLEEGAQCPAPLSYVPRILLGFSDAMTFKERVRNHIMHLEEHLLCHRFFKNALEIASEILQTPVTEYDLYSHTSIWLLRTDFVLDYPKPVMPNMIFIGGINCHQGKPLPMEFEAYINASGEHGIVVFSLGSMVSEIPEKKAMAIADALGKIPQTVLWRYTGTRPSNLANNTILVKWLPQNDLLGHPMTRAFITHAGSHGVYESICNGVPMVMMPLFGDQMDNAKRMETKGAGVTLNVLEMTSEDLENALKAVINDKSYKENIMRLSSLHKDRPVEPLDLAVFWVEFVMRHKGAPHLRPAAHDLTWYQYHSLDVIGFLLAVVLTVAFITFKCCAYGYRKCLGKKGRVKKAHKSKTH

[6] = target: T6, UGT1A10 (Homo sapiens, UniProt Q9HAW8); assay: Glucuronidation by expressed human UGT1A10
T6 sequence (Q9HAW8 26-530): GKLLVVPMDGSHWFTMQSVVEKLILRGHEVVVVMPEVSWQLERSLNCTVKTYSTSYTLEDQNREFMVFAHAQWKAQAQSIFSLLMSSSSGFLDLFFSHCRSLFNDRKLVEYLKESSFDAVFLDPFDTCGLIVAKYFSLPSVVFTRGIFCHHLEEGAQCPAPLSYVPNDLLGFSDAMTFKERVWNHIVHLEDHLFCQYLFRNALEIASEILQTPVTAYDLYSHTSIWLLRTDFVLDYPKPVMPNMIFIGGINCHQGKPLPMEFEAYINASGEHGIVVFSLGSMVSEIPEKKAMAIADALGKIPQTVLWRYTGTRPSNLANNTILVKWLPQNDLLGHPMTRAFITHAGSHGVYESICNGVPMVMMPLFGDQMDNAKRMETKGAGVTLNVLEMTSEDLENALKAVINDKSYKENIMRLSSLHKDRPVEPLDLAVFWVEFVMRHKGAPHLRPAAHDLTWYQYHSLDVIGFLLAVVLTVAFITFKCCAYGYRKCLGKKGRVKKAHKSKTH

[7] = Glucuronidation by pooled human liver microsomes
[8] = Glucuronidation by pooled human intestinal microsomes; settings: human, 2.5 μM, pH 7.4
[9] = UGT2B7, conclusion from fingerprints
[10] = human liver microsomes, 2.5μM substrate

SMILES	substrate of UGT2B7 [1, 9]	glucuronidation rate ([2]; UGT1A1, 2.5μM substrate, 37°C)	glucuronidation rate ([3]; UGT1A7, 2.5μM substrate, 37°C)	glucuronidation rate ([4]; UGT1A8, 2.5μM substrate, 37°C)	glucuronidation rate ([5]; UGT1A9, 2.5 μM substrate, 37°C)	glucuronidation rate ([6]; UGT1A10, 10 μM substrate, 37°C)	glucuronidation rate [7, 10]	also measured
O=c1c(O)c(-c2ccccc2)oc2cccc(O)c12 [3,5-diHF, 3,5-dihydroxyflavone]	substrates	–	–	–	–	–	–	–
O=c1cc(-c2ccccc2)oc2cccc(O)c12 [5-HF, 5-hydroxyflavone]	–	–	–	–	–	–	–	glucuronidation rate ([2]; human, 2.5 μM, pH 7.4): 0.28±0.00 nmol per min per mg of protein; glucuronidation rate ([2]; human, 10 μM, pH 7.4): 0.28±0.01 nmol per min per mg of protein; glucuronidation rate ([2]; human, 35 μM, pH 7.4): 0.308±0.02 nmol per min per mg of protein; glucuronidation rate ([3]; human, 2.5 μM, pH 7.4): 0 nmol per min per mg of protein; glucuronidation rate ([4]; human, 2.5 μM, pH 7.4): 0.28±0.04 nmol per min per mg of protein; glucuronidation rate ([5]; human, 2.5 μM, pH 7.4): 0.29±0.01 nmol per min per mg of protein; glucuronidation rate ([6]; human, 10 μM, pH 7.4): 0.12±0.01 nmol per min per mg of protein; substrate of UGT2B7 [1]: substrates; glucuronidation rate ([1]; 2.5 μM): 0.20±0.01 nmol per min per mg of protein; glucuronidation rate ([1]; 10 μM): 0.40±0.02 nmol per min per mg of protein; glucuronidation rate ([1]; 35 μM): 0.11±0.00 nmol per min per mg of protein; glucuronidation rate ([7]; human, 2.5 μM, pH 7.4): 0.00±0.00 nmol per min per mg of protein; glucuronidation rate [8]: 0.49±0.06 nmol per min per mg of protein
O=c1cc(-c2ccccc2O)oc2ccccc12 [2′-HF, 2′-hydroxyflavone]	–	1.28±0.12 nmol per min per mg of protein	1.13±0.11 nmol per min per mg of protein	1.18±0.26 nmol per min per mg of protein	0.43±0.06 nmol per min per mg of protein	0.09±0.01 nmol per min per mg of protein	0.97±0.03 nmol per min per mg of protein	–
O=c1c(O)c(-c2ccc(O)cc2)oc2ccccc12 [3,4′-diHF, 3,4′-dihydroxyflavone]	substrates	–	–	–	–	–	–	–
O=c1cc(-c2ccccc2)oc2ccc(O)cc12 [6-HF, 6-hydroxyflavone]	–	1.50±0.18 nmol per min per mg of protein	0 nmol per min per mg of protein	0.87±0.12 nmol per min per mg of protein	0.10±0.00 nmol per min per mg of protein	0.62±0.07 nmol per min per mg of protein	0.91±0.04 nmol per min per mg of protein	–
O=c1cc(-c2ccc(O)cc2)oc2ccccc12 [4′-HF, 4′-hydroxyflavone]	–	1.34 ±0.21 nmol per min per mg of protein	0 nmol per min per mg of protein	0.00±0.00 nmol per min per mg of protein	not detectable	0.30±0.05 nmol per min per mg of protein	0.80±0.05 nmol per min per mg of protein	glucuronidation (detectable metabolism) ([5]; UGT1A9, 35 μM substrate): no detectable metabolism
O=c1cc(-c2cccc(O)c2)oc2ccccc12 [3′-HF, 3′-hydroxyflavone]	–	1.59 ±0.26 nmol per min per mg of protein	1.44±0.20 nmol per min per mg of protein	0.27 ±0.02 nmol per min per mg of protein	0.48±0.13 nmol per min per mg of protein	0.86±0.08 nmol per min per mg of protein	3.14±0.01 nmol per min per mg of protein	–
O=c1cc(-c2ccccc2)oc2cc(O)ccc12 [7-HF, 7-hydroxyflavone]	–	1.73 ±0.21 nmol per min per mg of protein	0 nmol per min per mg of protein	0.23±0.03 nmol per min per mg of protein	1.30±0.09 nmol per min per mg of protein	0.17±0.03 nmol per min per mg of protein	1.39±0.01 nmol per min per mg of protein	–
O=c1c(O)c(-c2ccccc2)oc2cc(O)ccc12 [3,7-diHF, 3,7-dihydroxyflavone]	substrates	–	–	–	–	–	–	–
